Measurements as given in US20140107021A1 (priority 2010, published 2014).
Read-outs that look alike come from different tables or passages of the source. Each block holds one compound with its values, some of them ahead of it. Square brackets hold non-standard residues; d marks the D form. Ends that are not written are not given here. Peptide text beside a SMILES is read from it. MCA = alpha-methylhydrocinnamic acid (2-methyl-3-phenylpropanoic acid); PEG 20 kDa = PEG of about 20 kDa linked to Cys (maleimido methoxyPEG); PLA = 3-phenyllactic acid (2-hydroxy-3-phenylpropanoic acid)

Tests used:
glucagon receptor [1] = molecular target: T1, glucagon receptor (Homo sapiens, UniProt P47871); assay: cell-based; conditions: for IC50(nM) (cΛMP, inhibit 0.2 mM Glucagon): Table L
Description: (§1) HEK293 cells co-transfected with the receptor and luciferase gene linked to a cAMP responsive element were employed for the bioassay.
(§2) All EC50s and IC50s are reported in the following examples in nM, unless indicated otherwise.

GLP-1 receptor = molecular target: T2, GLP-1 receptor (Homo sapiens, UniProt P43220); assay: cAMP induction at the GLP-1 receptor (agonist activity), firefly luciferase reporter assay in HEK293 cells; format: cell-based
T2 construct: expressed in transfected cells; host or cells: HEK293
Description: as §1, §2

glucagon receptor [2] = molecular target: T1, glucagon receptor; assay: cAMP induction at the glucagon receptor (agonist activity), luciferase reporter assay in HEK293 cells; format: cell-based; parameters: expressed in transfected cells; host or cells: HEK293; conditions: Table E; read-out: cAMP Induction EC50
Description: as §1, §2

T1 sequence (P47871 26-477): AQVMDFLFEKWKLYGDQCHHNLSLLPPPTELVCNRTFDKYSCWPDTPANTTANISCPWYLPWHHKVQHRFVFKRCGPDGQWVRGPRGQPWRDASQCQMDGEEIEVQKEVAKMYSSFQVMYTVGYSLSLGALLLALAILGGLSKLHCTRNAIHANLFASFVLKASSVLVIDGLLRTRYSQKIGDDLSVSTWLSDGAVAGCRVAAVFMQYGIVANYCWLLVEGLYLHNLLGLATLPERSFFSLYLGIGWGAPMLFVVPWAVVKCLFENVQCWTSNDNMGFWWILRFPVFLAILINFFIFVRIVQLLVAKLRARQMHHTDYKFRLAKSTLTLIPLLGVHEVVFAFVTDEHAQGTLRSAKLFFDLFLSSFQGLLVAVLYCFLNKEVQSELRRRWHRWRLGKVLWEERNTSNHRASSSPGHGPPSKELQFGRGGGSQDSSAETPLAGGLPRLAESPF
T2 sequence (P43220 24-463): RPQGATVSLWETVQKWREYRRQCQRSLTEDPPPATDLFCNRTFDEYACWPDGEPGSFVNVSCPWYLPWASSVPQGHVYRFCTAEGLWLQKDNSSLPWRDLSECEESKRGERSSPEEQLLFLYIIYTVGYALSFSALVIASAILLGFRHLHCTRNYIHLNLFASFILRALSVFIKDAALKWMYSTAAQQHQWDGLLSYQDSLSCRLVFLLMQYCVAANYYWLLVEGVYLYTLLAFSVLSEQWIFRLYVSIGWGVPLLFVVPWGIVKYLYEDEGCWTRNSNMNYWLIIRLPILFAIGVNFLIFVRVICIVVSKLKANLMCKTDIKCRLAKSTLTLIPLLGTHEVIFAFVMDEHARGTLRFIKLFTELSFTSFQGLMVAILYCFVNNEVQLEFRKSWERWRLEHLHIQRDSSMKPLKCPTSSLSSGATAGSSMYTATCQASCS

IC50 (glucagon receptor [1]; read-out: Glucagon IC50, Table B): 63 nM
Compound: CSCC[C@H](NC(=O)[C@H](CC(C)C)NC(=O)[C@H](Cc1c[nH]c2ccccc12)NC(=O)[C@H](CCC(N)=O)NC(=O)[C@@H](NC(=O)[C@H](Cc1ccccc1)NC(=O)[C@H](CC(=O)O)NC(=O)[C@@H]1CCCCNC(=O)CC[C@H](NC(=O)[C@H](CC(=O)O)NC(=O)[C@H](CC(C)C)NC(=O)[C@H](Cc2ccc(O)cc2)NC(=O)[C@H](CCCCN)NC(=O)[C@H](CO)NC(=O)[C@H](Cc2ccc(O)cc2)NC(=O)[C@H](CCC(=O)O)NC(=O)[C@H](CO)NC(=O)[C@@H](NC(=O)[C@H](Cc2ccccc2)NC(=O)[C@@H](NC(=O)CNC(=O)[C@H](CCC(=O)O)NC(=O)[C@H](C)N)[C@@H](C)O)[C@@H](C)O)C(=O)N[C@@H](CCCNC(=N)N)C(=O)N[C@@H](CCCNC(=N)N)C(=O)N[C@@H](C)C(=O)N1)C(C)C)C(=O)N[C@@H](CC(=O)O)C(=O)N[C@H](C(N)=O)[C@@H](C)O [[A2E3, E16K20(Lactam),D28]G(2~29)]

IC50 (glucagon receptor [1]; Glucagon IC50 (nM), Table B): 63 nM
Compound: CSCC[C@H](NC(=O)[C@H](CC(C)C)NC(=O)[C@H](Cc1c[nH]c2ccccc12)NC(=O)[C@H](CCC(N)=O)NC(=O)[C@@H](NC(=O)[C@H](Cc1ccccc1)NC(=O)[C@H](CC(=O)O)NC(=O)[C@H](CCC(N)=O)NC(=O)[C@H](C)NC(=O)[C@H](CCCNC(=N)N)NC(=O)[C@H](CCCNC(=N)N)NC(=O)[C@@H]1CCC(=O)NCCCC[C@H](NC(=O)[C@H](CO)NC(=O)[C@H](Cc2ccc(O)cc2)NC(=O)[C@H](CC(=O)O)NC(=O)[C@H](CO)NC(=O)[C@@H](NC(=O)[C@@H](O)Cc2ccccc2)[C@@H](C)O)C(=O)N[C@@H](Cc2ccc(O)cc2)C(=O)N[C@@H](CC(C)C)C(=O)N[C@@H](CC(=O)O)C(=O)N1)C(C)C)C(=O)N[C@@H](CC(=O)O)C(=O)N[C@H](C(N)=O)[C@@H](C)O [[PLA6, D9, K12E16(Lactam), D28]G(6-29)] (HELM PEPTIDE1{[O=C([C@@H](O)Cc1ccccc1)[*:2]].T.S.D.Y.S.K.Y.L.D.E.R.R.A.Q.D.F.V.Q.W.L.M.D.T.[am]}$PEPTIDE1,PEPTIDE1,7:R3-11:R3$$$V2.0)

Compound: CSCC[C@H](NC(=O)[C@H](CC(C)C)NC(=O)[C@H](Cc1c[nH]c2ccccc12)NC(=O)[C@H](CCC(N)=O)NC(=O)[C@@H](NC(=O)[C@H](Cc1ccccc1)NC(=O)[C@H](CC(=O)O)NC(=O)[C@@H]1CCCCNC(=O)CC[C@H](NC(=O)[C@H](CC(=O)O)NC(=O)[C@H](CC(C)C)NC(=O)[C@H](Cc2ccc(O)cc2)NC(=O)[C@H](CCCCN)NC(=O)[C@H](CO)NC(=O)[C@H](Cc2ccc(O)cc2)NC(=O)[C@H](CCC(=O)O)NC(=O)[C@H](CO)NC(=O)[C@@H](NC(=O)[C@@H](O)Cc2ccccc2)[C@@H](C)O)C(=O)N[C@@H](CCCNC(=N)N)C(=O)N[C@@H](CCCNC(=N)N)C(=O)N[C@@H](C)C(=O)N1)C(C)C)C(=O)N[C@@H](CC(N)=O)C(=O)N[C@H](C(=O)NCC(=O)N1CCC[C@H]1C(=O)N[C@@H](CO)C(=O)N[C@@H](CO)C(=O)NCC(=O)N[C@@H](C)C(=O)N1CCC[C@H]1C(=O)N1CCC[C@H]1C(=O)N1CCC[C@H]1C(=O)N[C@@H](CO)C(N)=O)[C@@H](C)O [[PLA6, E9, E16K20(Lactam)]]
EC50 (GLP-1 receptor; GLP-1 EC50 (nM), Table C): 20 nM | EC50 (GLP-1 receptor; GLP-1 ECso (nM), Table A): 20 nM | IC50 (glucagon receptor [1]; Glu ICso (nM), Table A, Glu = glucagon): 20 nM | IC50 (glucagon receptor [1]; Glucagon IC50 (nM), Table C): 20 nM

IC50 (glucagon receptor [1]; IC50(nM) (cAMP, inhibit 0.8 mM Glucagon), Table K, inhibit 0.8 mM Glucagon): 84.4 ± 19.5 nM
Compound: CSCC[C@H](NC(=O)[C@H](CC(C)C)NC(=O)[C@H](Cc1c[nH]c2ccccc12)NC(=O)[C@H](CCC(N)=O)NC(=O)[C@@H](NC(=O)[C@H](Cc1ccccc1)NC(=O)[C@H](CC(=O)O)NC(=O)[C@H](CCC(N)=O)NC(=O)[C@H](C)NC(=O)[C@H](CCCNC(=N)N)NC(=O)[C@H](CCCNC(=N)N)NC(=O)[C@H](CO)NC(=O)[C@H](CC(=O)O)NC(=O)[C@H](CC(C)C)NC(=O)[C@H](Cc1ccc(O)cc1)NC(=O)[C@H](CCCCN)NC(=O)[C@H](CO)NC(=O)[C@H](Cc1ccc(O)cc1)NC(=O)[C@H](CCC(=O)O)NC(=O)[C@H](CO)NC(=O)[C@@H](NC(=O)[C@H](Cc1ccccc1)NC(=O)[C@@H](NC(=O)[C@@H](O)Cc1ccccc1)[C@@H](C)O)[C@@H](C)O)C(C)C)C(=O)N[C@@H](CC(N)=O)C(=O)N[C@H](C(N)=O)[C@@H](C)O [[PLA^4, E^9]Glucagon(aa4-29)-NH2] (HELM PEPTIDE1{[O=C([C@@H](O)Cc1ccccc1)[*:2]].T.F.T.S.E.Y.S.K.Y.L.D.S.R.R.A.Q.D.F.V.Q.W.L.M.N.T.[am]}$$$$V2.0)

EC50 (glucagon receptor [2]): 1610 ± 1130 nM
Compound: CC(C)C[C@H](NC(=O)[C@H](Cc1ccc(O)cc1)NC(=O)[C@H](CCCCN)NC(=O)[C@H](CO)NC(=O)[C@H](Cc1ccc(O)cc1)NC(=O)[C@H](CCS(=O)(=O)O)NC(=O)[C@H](CO)NC(=O)[C@@H](NC(=O)[C@H](Cc1ccccc1)NC(=O)[C@@H](NC(=O)[C@H](CC(C)C)NC(=O)[C@H](CCC(N)=O)NC(=O)[C@@H](N)CO)[C@@H](C)O)[C@@H](C)O)C(=O)N[C@@H](CC(=O)O)C(=O)N[C@@H](CO)C(=O)N[C@@H](CCCNC(=N)N)C(=O)N[C@@H](CCCNC(=N)N)C(=O)N[C@@H](C)C(=O)N[C@@H](CCC(N)=O)C(=O)N[C@@H](CC(=O)O)C(=O)N[C@@H](Cc1ccccc1)C(=O)N[C@H](C(=O)N[C@@H](CCC(N)=O)C(=O)N[C@@H](Cc1ccccc1)C(=O)N[C@@H](CC(C)C)C(=O)N[C@@H](CC(C)C)C(=O)N[C@@H](CC(N)=O)C(=O)N[C@H](C(N)=O)[C@@H](C)O)C(C)C [[desHis^1, Leu^4, hCys^9(SO3—), Phe^25, Leu^27]Glucagon-NH2] (HELM PEPTIDE1{S.Q.L.T.F.T.S.[O=C([C@H](CCS(=O)(=O)O)N[*:1])[*:2]].Y.S.K.Y.L.D.S.R.R.A.Q.D.F.V.Q.F.L.L.N.T.[am]}$$$$V2.0)

Kb (glucagon receptor [1]): 60.3 nM
Compound: CSCC[C@H](NC(=O)[C@H](CC(C)C)NC(=O)[C@H](Cc1c[nH]c2ccccc12)NC(=O)[C@H](CCC(N)=O)NC(=O)[C@@H](NC(=O)[C@H](Cc1ccccc1)NC(=O)[C@H](CC(=O)O)NC(=O)[C@H](CCC(N)=O)NC(=O)[C@H](C)NC(=O)[C@H](CCCNC(=N)N)NC(=O)[C@H](CCCNC(=N)N)NC(=O)[C@H](CO)NC(=O)[C@H](CC(=O)O)NC(=O)[C@H](CC(C)C)NC(=O)[C@H](Cc1ccc(O)cc1)NC(=O)[C@H](CCCCN)NC(=O)[C@H](CO)NC(=O)[C@H](Cc1ccc(O)cc1)NC(=O)[C@H](CCS(=O)(=O)O)NC(=O)[C@H](CO)NC(=O)[C@@H](NC(=O)[C@H](Cc1ccccc1)NC(=O)[C@@H](NC(=O)CN)[C@@H](C)O)[C@@H](C)O)C(C)C)C(=O)N[C@@H](CC(N)=O)C(=O)N[C@H](C(N)=O)[C@@H](C)O [[hCys^9(SO3H)]Glucagon(aa4-29)-NH2] (HELM PEPTIDE1{G.T.F.T.S.[O=C([C@H](CCS(=O)(=O)O)N[*:1])[*:2]].Y.S.K.Y.L.D.S.R.R.A.Q.D.F.V.Q.W.L.M.N.T.[am]}$$$$V2.0; N-terminus assumed)

Kb (glucagon receptor [1]): 170 nM
Compound: CSCC[C@H](NC(=O)[C@H](CC(C)C)NC(=O)[C@H](Cc1c[nH]c2ccccc12)NC(=O)[C@H](CCC(N)=O)NC(=O)[C@@H](NC(=O)[C@H](Cc1ccccc1)NC(=O)[C@H](CC(=O)O)NC(=O)[C@H](CCC(N)=O)NC(=O)[C@H](C)NC(=O)[C@H](CCCNC(=N)N)NC(=O)[C@H](CCCNC(=N)N)NC(=O)[C@H](CO)NC(=O)[C@H](CC(=O)O)NC(=O)[C@H](CC(C)C)NC(=O)[C@H](Cc1ccc(O)cc1)NC(=O)[C@H](CCCCN)NC(=O)[C@H](CO)NC(=O)[C@H](Cc1ccc(O)cc1)NC(=O)[C@H](CCS(=O)(=O)O)NC(=O)[C@H](CO)NC(=O)[C@@H](NC(=O)[C@H](Cc1ccccc1)NC(=O)[C@@H](N)[C@@H](C)O)[C@@H](C)O)C(C)C)C(=O)N[C@@H](CC(N)=O)C(=O)N[C@H](C(N)=O)[C@@H](C)O [[hCys^9(SO3H)]Glucagon(aa5-29)-NH2] (HELM PEPTIDE1{T.F.T.S.[O=C([C@H](CCS(=O)(=O)O)N[*:1])[*:2]].Y.S.K.Y.L.D.S.R.R.A.Q.D.F.V.Q.W.L.M.N.T.[am]}$$$$V2.0; N-terminus assumed)

Compound: FTSDYSKYLDSRRAQDFVQWLMNT-NH2 [Glucagon(aa6-29)-NH2]
Kb (glucagon receptor [1]): 115 nM | cAMP (I/A)50 (glucagon receptor [1]): 1730 | cAMP pA2 (glucagon receptor [1]): 6.94 ± 0.63

Compound: GTFTSEYSKYLDSRRAQDFVQWLMNT-NH2 [[Glu^9]Glucagon(aa4-29)-NH2]
Kb (glucagon receptor [1]): 89.1 nM

Compound: H-FTSKYSKYLDSRRAQDFVQWLMNT-NH2 [[Lys^9]Glucagon(aa6-29)-NH2]
Kb (glucagon receptor [1]): 263 nM | cAMP (I/A)50 (glucagon receptor [1]): 1990 | cAMP pA2 (glucagon receptor [1]): 6.58 ± 0.60

Compound: HSQGTFTSDYARYLDARRAREFIKWLVRGRG [ANK2 (Bayer peptide), reference compound]
Glucagon IC50 (nM) (glucagon receptor [1]; Table B): agonist

IC50(nM) (cΛMP, inhibit 0.2 mM Glucagon) (glucagon receptor [1]): no antagonism
Compound: [MCA6, E9, C24(20 kDaPEG)]Glucagon(aa6-29)-NII2 ([MCA]TSEYSKYLDSRRAQDFVC(PEG 20 kDa)WLMNT-NH2)

IC50(nM) (cΛMP, inhibit 0.2 mM Glucagon) (glucagon receptor [1]): no antagonism
Compound: [PLA6, C8(1.2 kDaPEG), E9]Glucagon(aa6-29)-NH2 ({PLA}-TC(PEG 1.2 kDa)EYSKYLDSRRAQDFVQWLMNT-NH2)
